The test system of data set [1] is co-culture of keratinocytes and melanocytes. The data set is described as follows: Cytotoxicity by estimation of the incorporation of leucine. The format is cell-based. As for the experimental part: The modulatory effect of compound 1 on melanogenesis was measured by the method described in patent FR-[…]. Schmidt, P. […], Anal. Biochem., 235(2), 113-18, 1996. This test is carried out on a co-culture of keratinocytes and melanocytes. […] The test was also carried out with arbutin and kojic acid, which are known depigmenting compounds.

Data set [2] has the same test system. The data set is described as follows: Inhibitory activity on melanin synthesis (constitutive melanogenesis), ratio of thiouracil to leucine incorporation. Particulars: for IC50: thiouracil/leucine incorporation ratio relative to 100% of the control, read-out: IC50 (concentration for which 50% of the synthesis of melanin is inhibited). It is filed as cell-based. As for the experimental part: The modulatory effect of compound 1 on melanogenesis was measured by the method described in patent FR-A-2 734 825 and also in the article by R. Schmidt, P. Krien and M. Régnier, Anal. Biochem., 235(2), 113-18, 1996. This test is carried out on a co-culture of keratinocytes and melanocytes.
For the compound tested, the following parameters were ascertained: • the cytotoxicity, by estimation of the incorporation of leucine, • the inhibitory activity on melanin synthesis, by estimating the ratio of incorporation of thiouracil to the incorporation of leucine, relative to 100% of the control (the control corresponds to the test carried out without compound tested). The IC50 values (concentration for which 50% of the synthesis of melanin is inhibited) were ascertained.
The test was also carried out with arbutin and kojic acid, which are known depigmenting compounds.

For `O=C1CC(=O)C(Cc2ccc(O)cc2O)C1` (centres unmarked), the Cytotoxicity on co-culture entry in data set [1] is on record as “Non-cytotoxic”. In addition, the IC50 in data set [2] was 52 µM. For `OC[C@H]1O[C@@H](Oc2ccc(O)cc2)[C@H](O)[C@@H](O)[C@@H]1O` [Arbutin, reference compound], in that order: “Non-cytotoxic” and more than 500 µM.

Turning to `O=C1CC(Cc2ccc(O)cc2O)C(=O)N1` (centres unmarked) [Compound 1, 3-(2,4-dihydroxybenzyl)pyrrolidine-2,5-dione], the “efficacy in inhibiting melanogenesis compared with arbutin and kojic acid” value in data set [2] is “more effective than arbutin and kojic acid”.

With `CCCCN1C(=O)CC(Cc2ccc(O)cc2O)C1=O` (centres unmarked) [Compound 7, 3-(2,4-dihydroxybenzyl)-1-butylpyrrolidine-2,5-dione], the melting point (commonly the temperature of the solid-liquid transition) was 122 to 123 °C. Moreover, the “efficacy in inhibiting melanogenesis compared with arbutin and kojic acid” value in data set [2] is “more effective than arbutin and kojic acid”. `O=C1CC(Cc2ccc(O)cc2O)C(=O)N1CCO` (centres unmarked) [Compound 12, 3-(2,4-dihydroxybenzyl)-1-(2-hydroxyethyl)pyrrolidine-2,5-dione]: the “efficacy in inhibiting melanogenesis compared with arbutin and kojic acid” value in data set [2] was “more effective than arbutin and kojic acid”. The same measure, in the same setting: the result for `CCOC(=O)CN1C(=O)CC(Cc2ccc(O)cc2O)C1=O` (centres unmarked) [Compound 32, ethyl [3-(2,4-dihydroxybenzyl)-2,5-dioxopyrrolidin-1-yl]acetate] reads “more effective than arbutin and kojic acid”. As to `O=c1cc(CO)occ1O` [Kojic acid, reference compound], the Cytotoxicity on co-culture in data set [1] is 100 µM. Moreover, in data set [2], the IC50 was more than 500 µM. The like results for `CCCCN1C(=O)CC(Cc2ccc(O)cc2O)C1=O` (centres unmarked) [drawing 126] were, in that order, “Non-cytotoxic” and 8.3 µM. For `CCOC(=O)CN1C(=O)CC(Cc2ccc(O)cc2O)C1=O` (centres unmarked) [drawing 128], in data set [1], the Cytotoxicity on co-culture result is given as “Non-cytotoxic”. Besides, in data set [2], the IC50 came out at 9.2 µM. Regarding `O=C1CC(Cc2ccc(O)cc2O)C(=O)N1CCO` (centres unmarked) [drawing 129], the Cytotoxicity on co-culture entry in data set [1] is “Non-cytotoxic”. In addition, the IC50 in data set [2] is 14.9 µM.

The record behind these values is patent US8937187B2, “Method for depigmenting keratin materials using resorcinol derivatives” (L'Oreal, priority 2010, dated 2015).
